Each structure is given as a SMILES string. Several values for one entry are separate records, joined by “and”; a condition that tells them apart may be missing. Identical values can stand only once.

The values below come from patent publication US20170105953A1, “METHOD FOR SUPPRESSING DIABETES AND/OR HEPATIC LIPIDS USING TORMENTIC ACID” (priority 2015, published 2017).

One assay deals with Akt. The assay can be described thus: western blot, phospho-Akt (Ser473)/total-Akt in skeletal muscle. Format: in vivo, C57BL/6J mice. Conditions: HF diet-fed mice. From the text:
FIG. 4A is a western blot analysis showing the protein contents of GLUT4 in skeletal muscle, and phospho-AMPK (Thr172) and total-AMPK (Thr172) in both liver tissue and skeletal muscle, and phospho-Akt (Ser473) and total-Akt (Ser473) in skeletal muscle of the mice receiving tormentic acid (PTA) by oral gavage for 4 weeks; and
FIG. 4B is a diagram showing the protein contents of GLUT4 in skeletal muscle, the expression levels of phospho-AMPK (Thr172) to total AMPK in both liver tissue and skeletal muscle, and quantified results from FIG. 4A for the phosphorylation status of Akt (p-Akt normalized to total Akt (pAkt/Akt)) in skeletal muscle of the mice receiving tormentic acid (PTA) by oral gavage for 4 weeks.
For part 2, C57BL/6J mice (4 weeks old) were obtained from the National Laboratory Animal Breeding and Research Center. The mice were divided randomly into two groups after 7 days acclimation. The control (CON) group (n=9) was fed a low-fat diet (diet 12450B, Research Diets, Inc., New Brunswick, N.J., USA), whereas the experimental group was fed a 45% high-fat diet (diet 12451, Research Diets, Inc.) for 12 weeks. The compositions of the experimental diets are given in previous studies. […]

Assay [1] can be described thus: blood parameters in high-fat diet-fed mice. Format: in vivo. Conditions: HF diet-fed C57BL/6J mice; for blood glucose / circulating TG (triglyceride) levels: week 12; for circulating TG (triglyceride) levels: vs HF group; for Blood profiles: FFA (plasma free fatty acid) / Blood profiles: Insulin / Blood profiles: Leptin / Blood profiles: TC (total cholesterol): mean ± SE, n=9. As to the method: For part 2, C57BL/6J mice (4 weeks old) were obtained from the National Laboratory Animal Breeding and Research Center. The mice were divided randomly into two groups after 7 days acclimation. […] The compositions of the experimental diets are given in previous studies. After 8 weeks, the high-fat treated mice were randomly subdivided into four groups (n=9) including PTA1 (0.06 g/kg/day), PTA2 (0.12 g/kg/day) or rosiglitazone (Rosi; 1% methylcellulose, 10 mg/kg body weight) (GlaxoSmithKline) or vehicle and treated by oral gavage one time per day from the 9th to 12th weeks, while the mice were still on the high-fat diet, whereas the CON and high-fat control (HF) mice were treated with vehicle only. At the end, food was withheld from the animals (from 10 p.m. to 10 a.m.). The next day, the mice were sacrificed for blood and tissue collection and analysis. Livers, skeletal muscles, and white adipose tissues (WATs) (including epididymal, mesenteric, and retroperitoneal WAT) were weighed and excised, followed by immediate freezing, and kept at −80° C. for target gene analysis. Heparin (30 units/mL) (Sigma) was added to blood samples. Plasma samples were collected within 30 min by centrifugation at 1600 g for 15 min at 4° C. Plasma was obtained for insulin and leptin assay.
Blood samples (0.8 mL) were collected from the retro-orbital sinus of fasted mice, and the glucose level was analyzed by the glucose oxidase method (model 1500; Sidekick Glucose Analyzer; YSI Inc., Yellow Springs, Ohio, USA). Plasma triglycerides (TG), total cholesterol (TC), and free fatty acids (FFA) were measured using commercial assay kits according to the manufacturer's directions (Triglycerides-E test, Cholesterol-E test, and FFA-C test, Wako Pure Chemical, Osaka, Japan). The levels of insulin and leptin in blood were analyzed by ELISA using a commercial assay kit according to the manufacturer's directions (mouse insulin ELISA kit, Sibayagi, Gunma, Japan; and mouse leptin ELISA kit, Morinaga, Yokohama, Japan).

Assay [2] is described as follows: hepatic lipids in high-fat diet-fed mice. It counts as in vivo. Particulars: HF diet-fed C57BL/6J mice, mean ± SE, n=9. The text has this:
For part 2, C57BL/6J mice (4 weeks old) were obtained from the National Laboratory Animal Breeding and Research Center. The mice were divided randomly into two groups after 7 days acclimation. The control (CON) group (n=9) was fed a low-fat diet (diet 12450B, Research Diets, Inc., New Brunswick, N.J., USA), whereas the experimental group was fed a 45% high-fat diet (diet 12451, Research Diets, Inc.) for 12 weeks. The compositions of the experimental diets are given in previous studies. After 8 weeks, the high-fat treated mice were randomly subdivided into four groups (n=9) including PTA1 (0.06 g/kg/day), PTA2 (0.12 g/kg/day) or rosiglitazone (Rosi; 1% methylcellulose, 10 mg/kg body weight) (GlaxoSmithKline) or vehicle and treated by oral gavage one time per day from the 9th to 12th weeks, while the mice were still on the high-fat diet, whereas the CON and high-fat control (HF) mice were treated with vehicle only. At the end, food was withheld from the animals (from 10 p.m. to 10 a.m.). The next day, the mice were sacrificed for blood and tissue collection and analysis. Livers, skeletal muscles, and white adipose tissues (WATs) (including epididymal, mesenteric, and retroperitoneal WAT) were weighed and excised, followed by immediate freezing, and kept at −80° C. for target gene analysis. Heparin (30 units/mL) (Sigma) was added to blood samples. Plasma samples were collected within 30 min by centrifugation at 1600 g for 15 min at 4° C. Plasma was obtained for insulin and leptin assay.
Hepatic lipids were extracted using a previously described protocol. For the hepatic lipid extraction, 0.375 g liver samples were homogenized with 1 mL of distilled water for 5 min. Finally, the dried pellet was resuspended in 0.5 mL of ethanol and analyzed using a triglycerides kit as used for serum lipids.

Setting [3] is: PTA1 0.06 g/kg/day oral gavage 4 weeks.
[4] abbreviates: PTA2 0.12 g/kg/day oral gavage 4 weeks.

As to `C[C@@H]1CC[C@]2(C(=O)O)CC[C@]3(C)C(=CC[C@@H]4[C@@]5(C)C[C@@H](O)[C@H](O)C(C)(C)[C@@H]5CC[C@]43C)[C@@H]2[C@]1(C)O` [PTA, tormentic acid], the “expression levels of phospho-Akt/total-Akt” value in the assay with Akt (PTA1 0.06 g/kg/day 4 weeks) was “significantly increased”. For the same molecule, the “expression levels of phospho-Akt/total-Akt” value with Akt (PTA2 0.12 g/kg/day 4 weeks) is recorded as “significantly increased”. Moreover, in assay [1] (setting [3]), the blood glucose stood at 96.3 mg/dL, the “circulating TG (triglyceride) levels” value is on record as “decreased”, the “Blood profiles: FFA (plasma free fatty acid)” value came to 2.15 ± 0.35 mequiv/L and the “Blood profiles: Insulin” value is on record as 101.7 ± 15.2 μU/mL. Also, in assay [1] (setting [3]), the Blood profiles: Leptin was 2.35 ± 0.092 ng/mL and the “Blood profiles: TC (total cholesterol)” value was 167.0 ± 6.1 mg/dL. In assay [1] (setting [4]), the blood glucose is 94.8 mg/dL, the “circulating TG (triglyceride) levels” value is listed as “decreased”, the “Blood profiles: FFA (plasma free fatty acid)” value came out at 1.88 ± 0.29 mequiv/L and the “Blood profiles: Insulin” value stood at 73.9 ± 11.8 μU/mL. Moreover, in assay [1] (setting [4]), the Blood profiles: Leptin was 1.78 ± 0.094 ng/mL and the “Blood profiles: TC (total cholesterol)” value stood at 153.7 ± 6.9 mg/dL. Also, in assay [2] (setting [3]), the “Liver lipids: Total lipid” value is listed as 80.1 ± 4.6 mg/g and the “Liver lipids: Triacylglycerol” value turned out to be 51.7 ± 5.1 µmol/g. In addition, in assay [2] (setting [4]), the “Liver lipids: Total lipid” value is 68.2 ± 5.9 mg/g; the “Liver lipids: Triacylglycerol” value was 35.2 µmol/g and 35.2 ± 4.9 µmol/g.
